Assay results published in article PMC9374667 (Communications Biology, 2022).
Values after ≈ are worked out from the molar mass of the structure shown. Values joined by “and” are separate entries in the source; they are usually repeats but may differ in a detail not shown here. Equal values may be shown once.

Columns and labels:
[1] = In vitro dissolution studies: dynamic solubility in buffers and simulated biological fluids; type: physicochemical; set-up: BBR dissolved in CMC-Na (Figure S7a) / Ibu dissolved in CMC-Na (Figure S7b): unit not given here; details: mean; for solubility at 0.5 h / solubility at 1 h / solubility at 2 h / solubility at 24 h: 37 °C
Description: (§1) Solubilities were determined by adding excess sample to 30 mL different mediums, such as HCl solution, acetate buffer, phosphate buffer, SGF, FaSSIF and FeSSIF. The configuration of various buffer solutions is shown in Supplementary Table 2. After being shaken at 400 rpm at 37 °C for 0.5, 1, 2, and 24 h, 0.3 mL of suspension was sampled and centrifuged at 14,000 rpm for 8 min to isolate mother liquor, and then analyzed by HPLC after dilution. All samples were analyzed in triplicate.

[2] = pH of the solution after 24 hours of the dissolution test; type: physicochemical
Description: as §1, with “triplicate. […]” for “triplicate.”
into a 1000 mL flask followed by addition of about 800 mL of deionized water. The mixture is stirred until all solids are dissolved.
Add about 100 mL of 0.1 N HCl, check pH value with a pH meter and adjust the pH to 2.0 with HCl (1 N) or NaOH (1 N). Then dilute to the volume with deionized water.
* 1N sodium hydroxide: Weigh 8 g NaOH in a 200 mL plastic volumetric flask, add deionized water to volume and mix well. […]
phosphate and 3.093 g sodium chloride in a 500 mL volumetric flask, add about 0.450 L deionized water, and adjust the pH to 6.5 with 1N sodium hydroxide or 1 N hydrochloric acid. Make up to volume (0.5 […]
Step 2: Place and dissolve 1.120 g FaSSIF/FeSSIF/FaSSGF instant powder with 0.250 L of buffer (from step 1) in a 500 mL volumetric flask, then add buffer (from step 1) to volume, and mix well. […]
g sodium chloride in a 500 mL volumetric flask, add about 0.450 L deionized water, and adjust the pH to 5.0 with 1 N sodium hydroxide or 1 N hydrochloric acid. Make up to volume (500 mL) with
Step 2: Place and dissolve 5.600 g FaSSIF/FeSSIF/FaSSGF instant […]
0.750 L deionized water. Make up to volume (1000 mL) with deionized water and placed overnight.
(1 picture or pasted object on this page, not shown here)

[3] = system: db/db mice; assay: Fat depots weight (BAT, iWAT, eWAT; percentage of body weight); type: in vivo
Description: The lean wild type control and the db/db control mice were given equal vehicle volume (0.5% CMC-Na solution). All mice were monitored for food intake, body weight, and fasting blood glucose during the 35-day trial. Glucose tolerance test (GTT) and insulin resistance test (ITT) were performed at 4 and 5 weeks of treatment, respectively. Metabolic analysis was performed at 5 weeks of treatment. At the end of the study, blood samples were taken through the retroorbital venous sinus of mice, fat depots (brown fat, inguinal subcutaneous fat, epididymal fat, perirenal fat and mesenteric fat depot) were dissected, weighed, and immediately frozen in liquid nitrogen and stored at −80 °C until required. Weight of fat depots are expressed in percentage (fat depots weight /bodyweight * 100%).

[4] = system: db/db mice; assay: HE staining of epididymal adipose tissue, adipocyte size; type: in vivo; details: BJ 75 and 150 mg/kg, BBR 150 mg/kg, Ibu 150 mg/kg
Description: The adipose tissue was fixed overnight in 4% paraformaldehyde, then embedded in paraffin and cut into 5 µm thick slices. Tissue sections were stained with hematoxylin and eosin (H&E). For immunohistochemistry, sections were incubated with primary antibodies against F4/80 (1:100 dilution) diluted in the blocking solution at 4 °C overnight. The tissue sections were then incubated with the horseradish peroxidase (HRP)-conjugated secondary antibody at room temperature for 2 h. Finally, the sections were developed with diaminobenzidine (DAB) and counterstained with hematoxylin. Images were obtained under a microscope. To quantify the F4/80-positive macrophages, two random fields per sample were analyzed by Image J software. The IHC profiler plugin of ImageJ was used to calculate the F4/80 positive area.

[5] = system: db/db mice; assay: Glucose tolerance test (GTT); type: in vivo; details: 150mg/kg
[6] = system: db/db mice; assay: Insulin tolerance test (ITT), AUC and initial slope; type: in vivo; details: db/db mice, IBU 150mg/kg
Description: Mice were fasted for 4 h for insulin resistance test and intraperitoneally injected with 1 unit/kg of insulin. Blood glucose levels were measured from the tail vein blood at 0, 15, 30, 45, 60, 90, and 120 min after injection. Plasma insulin levels were measured using an ultrasensitive mouse insulin ELISA kit (Nanjing Jiancheng Bioengineering Institute, Nanjing, China).

[7] = aqueous buffer, thermodynamic from solid, Acetate buffer (pH 4.5)
[8] = fasted state simulated intestinal fluid (FaSSIF-V1), FaSSIF-V1 (pH 6.5)
[9] = fed state simulated intestinal fluid (FeSSIF-V1), thermodynamic from solid, FeSSIF-V1 (pH 5.0)
[10] = simulated gastric fluid (SGF), SGF (pH 2.0)

CC(C)Cc1ccc(C(C)C(=O)O)cc1 (stereo not shown) [Ibu, Ibuprofen, reference compound]
solubility at 0.5 h ([1]; Acetate buffer (pH 4.5)): 89.5 µg/mL (≈ 0.434 mM)
solubility at 1 h ([1]; Acetate buffer (pH 4.5)): 103 µg/mL (≈ 0.497 mM)
Ibu dissolved in CMC-Na (Figure S7b) ([1]; time 0.5): 0.09941
Ibu dissolved in CMC-Na (Figure S7b) ([1]; time 1): 0.1517
Ibu dissolved in CMC-Na (Figure S7b) ([1]; time 24): 0.385
solubility at 0.5 h ([1]; Phosphate buffer (pH 6.8)): 2650 µg/mL (≈ 12.9 mM)
solubility at 1 h ([1]; Phosphate buffer (pH 6.8)): 2680 µg/mL (≈ 13 mM)
solubility at 2 h [1, 7]: 124 µg/mL (≈ 0.603 mM)
solubility at 24 h [1, 7]: 125 µg/mL (≈ 0.605 mM)
solubility at 2 h ([1]; aqueous buffer, thermodynamic from solid, Phosphate buffer (pH 6.8)): 2900 µg/mL (≈ 14.1 mM)
solubility at 24 h ([1]; fasted state simulated intestinal fluid (FaSSIF-V1), thermodynamic from solid, FaSSIF-V1 (pH 6.5)): 1480 µg/mL (≈ 7.16 mM)
solubility at 0.5 h [1, 8]: 1660 µg/mL (≈ 8.07 mM)
solubility at 1 h [1, 8]: 1610 µg/mL (≈ 7.8 mM)
solubility at 2 h [1, 8]: 1610 µg/mL (≈ 7.81 mM)
solubility at 0.5 h [1, 9]: 798 µg/mL (≈ 3.87 mM)
solubility at 1 h [1, 9]: 780 µg/mL (≈ 3.78 mM)
solubility at 2 h [1, 9]: 890 µg/mL (≈ 4.31 mM)
solubility at 24 h [1, 9]: 705 µg/mL (≈ 3.42 mM)
solubility at 0.5 h [1, 10]: 51.9 µg/mL (≈ 0.252 mM)
solubility at 1 h [1, 10]: 70.4 µg/mL (≈ 0.341 mM)
solubility at 2 h [1, 10]: 77.3 µg/mL (≈ 0.375 mM)
solubility at 24 h [1, 10]: 59.9 µg/mL (≈ 0.29 mM)
pH of the solution after 24 hours ([2]; Acetate buffer, blank vehicle 4.54): 4.56
pH of the solution after 24 hours ([2]; CMC-Na, blank vehicle 6.51): 5.57
pH of the solution after 24 hours ([2]; FaSSIF-v1, blank vehicle 6.51): 6.04
pH of the solution after 24 hours ([2]; FeSSIF-v1, blank vehicle 5.04): 5.05
pH of the solution after 24 hours ([2]; HCl solution, blank vehicle 1.08): 1.07
pH of the solution after 24 hours ([2]; Phosphate buffer, blank vehicle 6.84): 6.60
pH of the solution after 24 hours ([2]; SGF, blank vehicle 2.03): 2.00
Fat Depots Weight, BAT ([3]; 150mg/kg, individual animals): 1.27 g and 2.12 g and 1.64 g and 1.62 g and 1.65 g and 1.78 g
Fat Depots Weight, eWAT ([3]; 150mg/kg, individual animals): 3.22 g and 3.09 g and 3.41 g and 3.43 g and 3.15 g and 3.78 g
Fat Depots Weight, iWAT ([3]; 150mg/kg, individual animals): 3.71 g and 3.4 g and 3.36 g and 4.03 g and 3.78 g and 4.01 g
Fat depots weight / body weight ([3]; 150mg/kg, individual animals): 19.7809% and 19.1502% and 20.6641% and 20.9797%
Fat depots weight compared with vehicle ([3]; db/db mice, BJ 75 and 150 mg/kg, BBR 150 mg/kg, Ibu 150 mg/kg): not significantly different
Size of adipocytes in eWAT compared with vehicle [4]: not significantly different
Blood Glucose (Figure S9p) ([5]; time 0, individual animals): 23.3 mmol/L and 18.9 mmol/L and 18.7 mmol/L and 22.0 mmol/L
Blood Glucose (Figure S9p) ([5]; time 15, individual animals): 33.3 mmol/L
Blood Glucose (Figure S9p) ([5]; time 30, individual animals): 33.3 mmol/L
Blood Glucose (Figure S9p) ([5]; time 45, individual animals): 33.3 mmol/L
Blood Glucose (Figure S9p) ([5]; time 60, individual animals): 33.3 mmol/L and 31.7 mmol/L and 32.4 mmol/L
Blood Glucose (Figure S9p) ([5]; time 90, individual animals): 33.3 mmol/L and 29.2 mmol/L and 22.9 mmol/L
Blood Glucose (Figure S9p) ([5]; time 120, individual animals): 30.3 mmol/L and 22.8 mmol/L and 23.9 mmol/L
Blood Glucose ([6]; times 0, individual animals (Figure S9p/S9r)): 22.4 mmol/L and 22.3 mmol/L and 22.8 mmol/L
Blood Glucose ([6]; times 15, individual animals (Figure S9p/S9r)): 24.0 mmol/L
Blood Glucose ([6]; times 30, individual animals (Figure S9p/S9r)): 19.6 mmol/L and 21.3 mmol/L and 20.3 mmol/L and 18.8 mmol/L
Blood Glucose ([6]; times 45, individual animals (Figure S9p/S9r)): 13.8 mmol/L and 18.5 mmol/L and 19.5 mmol/L and 17.5 mmol/L and 15.3 mmol/L and 15.6 mmol/L
Blood Glucose ([6]; times 60, individual animals (Figure S9p/S9r)): 15.0 mmol/L and 13.2 mmol/L and 20.4 mmol/L and 15.7 mmol/L
Blood Glucose ([6]; times 90, individual animals (Figure S9p/S9r)): 15.6 mmol/L and 21.3 mmol/L and 21.6 mmol/L and 14.9 mmol/L and 15.0 mmol/L
Blood Glucose ([6]; times 120, individual animals (Figure S9p/S9r)): 18.2 mmol/L and 22.9 mmol/L and 18.8 mmol/L and 16.9 mmol/L and 15.3 mmol/L
